Results reported in US4195022A, “4-Desacetoxy-4α-hydroxyvinblastine and related compounds” (Eli Lilly and Company, priority 1978, dated 1980).
Counter-ions that a name gives are not always drawn.

How the values were obtained:
[1] = tested on: Gardner lymphosarcoma (GLS); experiment: anti-tumor activity against transplanted Gardner lymphosarcoma (GLS) in mice; type: in vivo; settings: intraperitoneal
Method: (§1) The compounds of this invention, as represented by Formula II above, are anti-tumor agents. […] For this determination, a protocol was used which involved the administration of the drug by the intraperitoneal route at a given dose level for 7-10 days after innoculation with the tumor or alternatively, on the first, fifth, and ninth days after innoculation.
(§2) The following table--Table 1--give the results of several experiments in which transplanted tumors in mice were treated successfully with a compound of this invention.
(§3) In the table, column 1 gives the name of the compound; column 2, the transplanted tumor; column 3, the dose level or dose level range and the number of days the dosage was administered; and column 4, the percent inhibition of tumor growth or percent prolongation of survival time, e.g., B16. (GLS is an abbreviation for Gardner lymphosarcoma; CA755 is an adenocarcinoma; and B16 is a melanoma.).

[2] = tested on: B16 melanoma; experiment: anti-tumor activity against transplanted B16 melanoma in mice (prolongation of survival time); type: in vivo; settings: B16, intraperitoneal; for toxic: 9.0 mg./kg. × 3 days
Method: as §1, §2, §3

[3] = background statement on known alkaloids; result in words; cited from earlier work
[4] = tested on: CA755 adenocarcinoma; experiment: anti-tumor activity against transplanted adenocarcinoma 755 (CA755) in mice; type: in vivo; settings: 755, intraperitoneal, 3.0 mg./kg. × 10 days
Method: as §1, §2, §3

[5] = tested on: Chinese hamster ovary cells; experiment: mitotic inhibition in Chinese hamster ovary cells; type: cell-based
Description: The compounds of this invention are mitotic inhibitors in Chinese hamster ovary cells.

Compound	Percent Inhibition of tumor growth ([1]; 1.5 mg./kg. × 10 days, day 7) [%]	Percent Inhibition of tumor growth ([1]; 1.5 mg./kg. × 10 days, day 11) [%]	Percent Inhibition of tumor growth ([1]; 3.0 mg./kg. × 10 days, day 7) [%]	Percent Inhibition of tumor growth ([1]; 3.0 mg./kg. × 10 days, day 11) [%]	toxic ([1]; 6.0 mg./kg. × 10 days)	Percent Inhibition of tumor growth ([1]; 6.0 mg./kg. × 10 days, day 7) [%]	Percent Prolongation of Survival Time ([2]; 3.0 mg./kg. × 3 days) [%]	Percent Prolongation of Survival Time ([2]; 6.0 mg./kg. × 3 days) [%]	toxic [2]	anti-cancer activity [3]	Percent Inhibition of tumor growth [4] [%]	minimal effective concentration ([5]; Cricetulus griseus, read-out: mitotic inhibition, activity as low as) [µg/mL]	mitotic inhibition compared with vinblastine sulfate or 4-desacetylvinblastine ([5]; result in words)
CC[C@]1(O)C[C@@H]2CN(CCc3c([nH]c4ccccc34)[C@@](C(=O)OC)(c3cc4c(cc3OC)N(C=O)[C@H]3[C@@](O)(C(=O)OC)[C@@H](O)[C@]5(CC)C=CCN6CC[C@]43[C@@H]65)C2)C1 [4-Desacetoxy-4α-hydroxy-vincristine sulfate]	36	29	100	100	toxic	100							
CC[C@]1(O)C[C@@H]2CN(CCc3c([nH]c4ccccc34)[C@@](C(=O)OC)(c3cc4c(cc3OC)N(C)[C@H]3[C@@](O)(C(=O)NN)[C@@H](O)[C@]5(CC)C=CCN6CC[C@]43[C@@H]65)C2)C1 [4-Desacetoxy-4α-hydroxyvinblastine C-3 carboxhydrazide]	97	98	100	100	toxic		67	121	toxic				
CCC(=O)C[C@@H]1CN(C=O)CCc2c([nH]c3ccccc23)[C@@](C(=O)OC)(c2cc3c(cc2OC)N(C)[C@H]2[C@](O)(C(=O)OC)[C@H](OC(C)=O)[C@]4(CC)C=CCN5CC[C@]32[C@@H]54)C1 [vinamidine]										chemotherapeutically-inactive			
CC[C@]1(O)C[C@@H]2CN(CCc3c([nH]c4ccccc34)[C@@](C(=O)OC)(c3cc4c(cc3OC)N(C)[C@H]3[C@@](O)(C(=O)OC)[C@@H](O)[C@]5(CC)C=CCN6CC[C@]43[C@@H]65)C2)C1 [4-Desacetoxy-4α-hydroxy-vinblastine, 4-Desacetoxy-4α-hydroxyvinblastine]	35	25	91	78	toxic	100	65	90	toxic		38	0.01	roughly corresponding to that seen with either vinblastine sulfate or with 4-desacetylvinblastine
leurosine N-oxide [pleurosine]										loss of anti-cancer activity			
